Results on 27 compounds are retold here after PMC9230548, “Synthesis and Biological Evaluation of Novel Synthetic Indolone Derivatives as Anti-Tumor Agents Targeting p53-MDM2 and p53-MDMX” (Molecules, 2022).

Broadly, the Ki is a measure of affinity in units of concentration, obtained from inhibition or displacement. As usually defined, the melting point is the temperature of the solid-liquid transition.

Read-outs that look alike come from different tables or passages of the source.

One series deals with MDM2 (Homo sapiens, UniProt Q00987). Kind of series: fluorescence polarization assay, MDM2 binding.
Sequence of MDM2 (Q00987 whole entry): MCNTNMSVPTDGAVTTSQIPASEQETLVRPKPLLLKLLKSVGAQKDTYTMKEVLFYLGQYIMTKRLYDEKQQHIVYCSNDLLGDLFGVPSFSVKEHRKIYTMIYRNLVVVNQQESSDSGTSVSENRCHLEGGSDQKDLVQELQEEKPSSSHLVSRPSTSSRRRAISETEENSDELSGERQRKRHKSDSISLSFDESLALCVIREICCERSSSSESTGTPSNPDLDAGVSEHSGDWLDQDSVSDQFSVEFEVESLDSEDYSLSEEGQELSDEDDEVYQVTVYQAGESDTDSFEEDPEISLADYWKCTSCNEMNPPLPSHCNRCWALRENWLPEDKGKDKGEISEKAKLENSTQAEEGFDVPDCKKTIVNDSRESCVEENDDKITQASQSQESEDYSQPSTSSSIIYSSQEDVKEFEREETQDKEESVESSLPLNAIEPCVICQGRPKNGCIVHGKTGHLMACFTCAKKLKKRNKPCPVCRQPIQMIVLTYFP
Another series deals with T1, MDMX (Homo sapiens, UniProt O15151).
T1 sequence (O15151 1-490): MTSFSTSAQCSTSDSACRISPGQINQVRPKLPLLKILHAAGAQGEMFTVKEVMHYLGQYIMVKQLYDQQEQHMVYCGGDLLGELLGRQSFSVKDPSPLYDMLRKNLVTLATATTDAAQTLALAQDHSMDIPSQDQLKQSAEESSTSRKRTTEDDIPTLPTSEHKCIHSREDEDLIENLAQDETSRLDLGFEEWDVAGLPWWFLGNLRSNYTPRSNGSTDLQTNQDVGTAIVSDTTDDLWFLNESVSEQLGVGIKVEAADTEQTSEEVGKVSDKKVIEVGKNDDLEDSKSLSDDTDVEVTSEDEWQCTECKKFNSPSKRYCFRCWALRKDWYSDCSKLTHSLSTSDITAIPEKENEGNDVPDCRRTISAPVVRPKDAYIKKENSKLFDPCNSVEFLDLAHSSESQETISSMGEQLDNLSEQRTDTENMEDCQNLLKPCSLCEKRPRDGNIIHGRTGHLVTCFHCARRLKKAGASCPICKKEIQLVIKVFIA
Nature of the series: fluorescence polarization assay, MDMX binding. For orientation: Fluorescence polarisation rises when a labelled molecule tumbles more slowly, as on binding a larger partner.

Setting [1] is: read-out: Ki (μM) ± SD MDM2, fluorescence polarization, PMDM-F peptide, pH 7.5.
Setting [2] is: read-out: Ki (μM) ± SD MDMX, fluorescence polarization, PMDM-F peptide, pH 7.5.

Procedure for MDM2: (§1) The MDM2 and MDMX binding evaluation for the target compounds was carried out using the fluorescence polarization assay.
(§2) Dose-dependent MDM2 and MDMX binding evaluations were carried out using the fluorescence polarization assay.
(§3) A total of 30 nM preincubated (30 min) MDM2 (or MDMX) and 10 nM PMDM-F peptide in reaction buffer (100 μL, potassium phosphate, 100 mM; bovine gamma globulin, 100 mg/mL; sodium azide, 0.02%) were added into a 96-well plate containing the tested compounds at pH 7.5.
Procedure for MDMX: as §1, §2, §3

For `O=C1/C(=C/c2ccccc2Cl)c2ccccc2N1S(=O)(=O)c1ccccc1` [Compound A1, (E)-3-(2-chlorobenzylidene)-1-(phenylsulfonyl)indolin-2-one], the melting point was in the range of 138.2 to 139.9 °C. The compound also displayed a Ki at MDM2 of 4.39 ± 0.82 µM. On MDMX, this compound yielded a Ki greater than 50 µM.
For the compound `Cc1ccccc1S(=O)(=O)N1C(=O)/C(=C/c2ccccc2Cl)c2ccccc21` [Compound A2, (E)-3-(2-chlorobenzylidene)-1-(o-tolylsulfonyl)indolin-2-one], the inhibition constant (Ki) is 7.23 ± 1.03 µM at MDM2 and greater than 50 µM on MDMX.
For `Cc1cccc(S(=O)(=O)N2C(=O)/C(=C/c3ccccc3Cl)c3ccccc32)c1` [Compound A3, (E)-3-(2-chlorobenzylidene)-1-(m-tolylsulfonyl)indolin-2-one], the results for the inhibitory constant (Ki) on MDM2 and on MDMX were 5.58 ± 0.99 µM and greater than 50 µM, respectively.
For `Cc1ccc(S(=O)(=O)N2C(=O)/C(=C/c3ccccc3Cl)c3ccccc32)cc1` [Compound A4, (E)-3-(2-chlorobenzylidene)-1-tosylindolin-2-one], the melting point lay in the range of 148.9 to 150.5 °C. On MDM2, this compound registered a Ki of 10.2 ± 1.45 µM. Further, at MDMX, the Ki is greater than 50 µM.
The matching figures for `O=C1/C(=C/c2ccccc2Cl)c2ccccc2N1S(=O)(=O)c1ccccc1Cl` [Compound A5, (E)-3-(2-chlorobenzylidene)-1-((2-chlorophenyl)sulfonyl)indolin-2-one]: 157.2 to 158.1 °C, 3.43 ± 0.57 µM and 42.1 ± 6.35 µM.
`O=C1/C(=C/c2ccccc2Cl)c2ccccc2N1S(=O)(=O)c1ccc(Cl)cc1` [Compound A7, (E)-3-(2-chlorobenzylidene)-1-((4-chlorophenyl)sulfonyl)indolin-2-one] showed a melting point of 172.4 to 173.1 °C. Besides, the Ki at MDM2 came to 1.53 ± 0.19 µM. Further, the inhibition constant (Ki) on MDMX worked out at 20.4 ± 2.62 µM.
The matching figures for `O=C1/C(=C/c2cccc(Cl)c2)c2ccccc2N1S(=O)(=O)c1ccccc1` [Compound A8, (E)-3-(3-chlorobenzylidene)-1-(phenylsulfonyl)indolin-2-one]: 115.1 to 117.3 °C, 1.47 ± 0.15 µM and 10.3 ± 1.45 µM.
As to `Cc1ccccc1S(=O)(=O)N1C(=O)/C(=C/c2cccc(Cl)c2)c2ccccc21` [Compound A9, (E)-3-(3-chlorobenzylidene)-1-(o-tolylsulfonyl)indolin-2-one], the melting point was in the range of 140.9 to 143.2 °C. Moreover, the inhibition constant (Ki) at MDM2 (setting [1]) came to 6.95 ± 0.97 µM. For the same compound, the inhibitory constant (Ki) at MDMX (setting [2]) is greater than 50 µM.
The matching figures for `Cc1cccc(S(=O)(=O)N2C(=O)/C(=C/c3cccc(Cl)c3)c3ccccc32)c1` [Compound A10, (E)-3-(3-chlorobenzylidene)-1-(m-tolylsulfonyl)indolin-2-one]: 147.4 to 149.2 °C, 5.36 ± 1.06 µM and greater than 50 µM.
In the case of `Cc1ccc(S(=O)(=O)N2C(=O)/C(=C/c3cccc(Cl)c3)c3ccccc32)cc1` [Compound A11, (E)-3-(3-chlorobenzylidene)-1-tosylindolin-2-one], the melting point is 136.3 to 138.1 °C. This compound had an inhibition constant (Ki) on MDM2 of 5.19 ± 1.25 µM. The Ki at MDMX was greater than 50 µM.
Take `O=C1/C(=C/c2cccc(Cl)c2)c2ccccc2N1S(=O)(=O)c1cccc([N+](=O)[O-])c1` [Compound A22, (E)-3-(3-chlorobenzylidene)-1-((3-nitrophenyl)sulfonyl)indolin-2-one]: the melting point lay in the range of 195.3 to 197 °C. Moreover, the affinity on MDM2 corresponds to a Ki of 1.39 ± 0.21 µM. At MDMX, this compound showed a Ki of 13.6 ± 1.47 µM.
As to `COc1ccc(S(=O)(=O)N2C(=O)/C(=C/c3cccc(Cl)c3)c3ccccc32)cc1` [Compound A23, (E)-3-(3-chlorobenzylidene)-1-((4-methoxyphenyl)sulfonyl)indolin-2-one], the melting point fell in the range of 175.1 to 176.7 °C. Further, the affinity at MDM2 corresponds to a Ki of 3.77 ± 0.45 µM. The same compound registered a Ki at MDMX of 42.2 ± 4.73 µM.
As to `Cc1ccccc1S(=O)(=O)N1C(=O)/C(=C/c2ccc(Cl)cc2)c2ccccc21` [Compound A24, (E)-3-(4-chlorobenzylidene)-1-(o-tolylsulfonyl)indolin-2-one], the melting point was in the range of 155.2 to 157.1 °C. Also, the Ki at MDM2 (setting [1]) is 3.17 ± 0.37 µM. For the same compound, the Ki at MDMX (setting [2]) came out at 34.7 ± 4.02 µM.
On to `Cc1cccc(S(=O)(=O)N2C(=O)/C(=C/c3ccc(Cl)cc3)c3ccccc32)c1` [Compound A25, (E)-3-(4-chlorobenzylidene)-1-(m-tolylsulfonyl)indolin-2-one], for which the Ki at MDM2 (setting [1]) is 4.93 ± 0.47 µM; at MDMX (setting [2]), greater than 50 µM.
In turn, `Cc1ccc(S(=O)(=O)N2C(=O)/C(=C/c3ccc(Cl)cc3)c3ccccc32)cc1` [Compound A26, (E)-3-(4-chlorobenzylidene)-1-tosylindolin-2-one] gave a melting point of 134.1 to 135.6 °C. In addition, on MDM2 (setting [1]), the inhibitory constant (Ki) turned out to be 4.68 ± 0.39 µM. The Ki on MDMX (setting [2]) is greater than 50 µM.
On to `O=C1/C(=C/c2ccc(Cl)cc2)c2ccccc2N1S(=O)(=O)c1ccccc1` [Compound A28, (E)-3-(4-chlorobenzylidene)-1-(phenylsulfonyl)indolin-2-one], for which the inhibition constant Ki is 2.18 ± 0.29 µM at MDM2 and 37.4 ± 3.57 µM on MDMX.
`O=C1/C(=C/c2cccc(Cl)c2)c2ccc(Cl)cc2N1S(=O)(=O)c1cccc(Cl)c1` [Compound A30, (E)-6-chloro-3-(3-chlorobenzylidene)-1-((3-chlorophenyl)sulfonyl)indolin-2-one] showed a melting point of 132.6 to 133.8 °C. The Ki on MDM2 (setting [1]) turned out to be 1.39 ± 0.15 µM. For the same compound, the inhibition constant (Ki) at MDMX (setting [2]) came out at 29 ± 2.18 µM.
In turn, `O=C1/C(=C/c2ccccc2Cl)c2ccccc2N1C(=O)c1ccccc1Cl` [Compound B1, (E)-1-(2-chlorobenzoyl)-3-(2-chlorobenzylidene)indolin-2-one] showed a melting point of 214.5 to 216.2 °C. Also, the Ki on MDM2 is 10.2 ± 2.01 µM. Further, the Ki on MDMX was greater than 50 µM.
The matching figures for `O=C1/C(=C/c2ccccc2Cl)c2ccccc2N1C(=O)c1cccc(Cl)c1` [Compound B2, (E)-1-(3-chlorobenzoyl)-3-(2-chlorobenzylidene)indolin-2-one]: 219 to 220.8 °C, 8.43 ± 1.58 µM and greater than 50 µM.
Compound `O=C1/C(=C/c2ccccc2Cl)c2ccccc2N1C(=O)c1ccc(Cl)cc1` [Compound B3, (E)-1-(4-chlorobenzoyl)-3-(2-chlorobenzylidene)indolin-2-one] returned a melting point of 221.3 to 222.7 °C. Further, affinity at MDM2 was put at a Ki of 7.86 ± 1.34 µM. Moreover, on MDMX, the inhibition constant (Ki) is greater than 50 µM.
As for `Cc1ccccc1C(=O)N1C(=O)/C(=C/c2ccccc2Cl)c2ccccc21` [Compound B4, (E)-3-(2-chlorobenzylidene)-1-(2-methylbenzoyl)indolin-2-one], the melting point was 111.2 to 112.8 °C. Moreover, the affinity on MDM2 corresponds to a Ki of 16.4 ± 2.77 µM. For the same compound, the inhibition constant Ki at MDMX is greater than 50 µM.
For `Cc1cccc(C(=O)N2C(=O)/C(=C/c3ccccc3Cl)c3ccccc32)c1` [Compound B5, (E)-3-(2-chlorobenzylidene)-1-(3-methylbenzoyl)indolin-2-one], in that order: 128.2 to 129.7 °C, 20.2 ± 3.05 µM and greater than 50 µM.
`Cc1ccc(C(=O)N2C(=O)/C(=C/c3ccccc3Cl)c3ccccc32)cc1` [Compound B6, (E)-3-(2-chlorobenzylidene)-1-(4-methylbenzoyl)indolin-2-one] yielded a melting point of 145.3 to 146.9 °C. The compound also showed a Ki at MDM2 of 22.4 ± 3.64 µM. At MDMX, this compound came in with a Ki greater than 50 µM.
As for `O=C1/C(=C/c2cccc(Cl)c2)c2ccccc2N1C(=O)c1ccccc1Cl` [Compound B7, (E)-1-(2-chlorobenzoyl)-3-(3-chlorobenzylidene)indolin-2-one], the melting point was in the range of 108.3 to 109.7 °C. For the same compound, the inhibition constant Ki at MDM2 came to 14.9 ± 2.37 µM. At MDMX, this compound had a Ki greater than 50 µM.
For `O=C1/C(=C/c2cccc(Cl)c2)c2ccccc2N1C(=O)c1cccc(Cl)c1` [Compound B8, (E)-1-(3-chlorobenzoyl)-3-(3-chlorobenzylidene)indolin-2-one], in that order: 112.4 to 114 °C, 8.63 ± 1.55 µM and greater than 50 µM.
For `O=C1/C(=C/c2cccc(Cl)c2)c2ccccc2N1C(=O)c1ccc(Cl)cc1` [Compound B9, (E)-1-(4-chlorobenzoyl)-3-(3-chlorobenzylidene)indolin-2-one], in that order: 103.5 to 104.8 °C, 15.9 ± 1.96 µM and greater than 50 µM.
`O=C1/C(=C/c2ccc(Cl)cc2)c2ccccc2N1C(=O)c1cccc(Cl)c1` [Compound B10, (E)-1-(3-chlorobenzoyl)-3-(4-chlorobenzylidene)indolin-2-one] came in with a melting point of 141.3 to 142.3 °C. For the same compound, the Ki on MDM2 was determined as 12.5 ± 1.04 µM. The same compound gave an inhibitory constant (Ki) on MDMX greater than 50 µM.
